Assays:
Test in all cases: biochemical
Format in all cases: biochemical
[1] = molecular target: 363 human kinases (including Aurora A/B/C) (Homo sapiens, UniProt Q6P2M8); details: CAMK1b, [ATP] 5 µM; for remaining activity at 0.1 µM: 100 nM; for remaining activity at 0.1 µM / remaining activity at 0.5 µM: read-out: % Enzyme Activity (relative to DMSO controls)
Description: (§1) However, the Aurora A/B selectivity ratios derived from our in vitro and in vivo data can be compared to prioritize inhibitors.

[2] = molecular target: 363 human kinases (including Aurora A/B/C) (Homo sapiens, UniProt Q9UM73); details: ALK, [ATP] 50 µM; for remaining activity at 0.1 µM: 100 nM; for remaining activity at 0.1 µM / remaining activity at 0.5 µM: read-out: % Enzyme Activity (relative to DMSO controls)
Description: as §1

[3] = molecular target: 363 human kinases (including Aurora A/B/C) (Homo sapiens, UniProt P16591); details: FER, [ATP] 50 µM; for remaining activity at 0.1 µM: 100 nM; for remaining activity at 0.1 µM / remaining activity at 0.5 µM: read-out: % Enzyme Activity (relative to DMSO controls)
Description: as §1

[4] = molecular target: 363 human kinases (including Aurora A/B/C) (Homo sapiens, UniProt P17612); details: PKA; for remaining activity at 0.1 µM: 100 nM; for remaining activity at 0.1 µM / remaining activity at 0.5 µM: read-out: % Enzyme Activity (relative to DMSO controls)
Description: as §1

[5] = molecular target: T1, 363 human kinases (including Aurora A/B/C) (Homo sapiens, UniProt Q9NWZ3); details: IRAK4; for remaining activity at 0.1 µM: 100 nM; for remaining activity at 0.1 µM / remaining activity at 0.5 µM: read-out: % Enzyme Activity (relative to DMSO controls)
T1 sequence (Q9NWZ3 1-460): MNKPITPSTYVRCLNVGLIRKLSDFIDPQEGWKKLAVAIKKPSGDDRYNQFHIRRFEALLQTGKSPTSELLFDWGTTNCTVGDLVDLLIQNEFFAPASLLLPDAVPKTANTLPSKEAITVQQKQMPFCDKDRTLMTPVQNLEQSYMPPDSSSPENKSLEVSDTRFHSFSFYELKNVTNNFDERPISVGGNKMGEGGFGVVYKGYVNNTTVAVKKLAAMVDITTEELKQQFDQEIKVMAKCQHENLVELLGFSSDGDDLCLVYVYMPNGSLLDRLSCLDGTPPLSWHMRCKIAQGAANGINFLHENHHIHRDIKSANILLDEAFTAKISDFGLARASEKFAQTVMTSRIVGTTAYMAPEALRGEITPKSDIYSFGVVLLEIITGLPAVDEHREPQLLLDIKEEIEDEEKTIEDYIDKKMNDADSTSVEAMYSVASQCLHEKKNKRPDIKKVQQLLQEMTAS
Description: as §1

[6] = molecular target: 363 human kinases (including Aurora A/B/C) (Homo sapiens, UniProt O43353); details: RIPK2; for remaining activity at 0.1 µM: 100 nM; for remaining activity at 0.1 µM / remaining activity at 0.5 µM: read-out: % Enzyme Activity (relative to DMSO controls)
Description: as §1

[7] = molecular target: 363 human kinases (including Aurora A/B/C) (Homo sapiens, UniProt Q9Y4K4); details: KHS/MAP4K5; for remaining activity at 0.1 µM: 100 nM; for remaining activity at 0.1 µM / remaining activity at 0.5 µM: read-out: % Enzyme Activity (relative to DMSO controls)
Description: as §1

[8] = molecular target: T2, 363 human kinases (including Aurora A/B/C) (Homo sapiens, UniProt Q8IW41); details: MAPKAPK5/PRAK; for remaining activity at 0.1 µM: 100 nM; for remaining activity at 0.1 µM / remaining activity at 0.5 µM: read-out: % Enzyme Activity (relative to DMSO controls)
T2 sequence (Q8IW41 1-473): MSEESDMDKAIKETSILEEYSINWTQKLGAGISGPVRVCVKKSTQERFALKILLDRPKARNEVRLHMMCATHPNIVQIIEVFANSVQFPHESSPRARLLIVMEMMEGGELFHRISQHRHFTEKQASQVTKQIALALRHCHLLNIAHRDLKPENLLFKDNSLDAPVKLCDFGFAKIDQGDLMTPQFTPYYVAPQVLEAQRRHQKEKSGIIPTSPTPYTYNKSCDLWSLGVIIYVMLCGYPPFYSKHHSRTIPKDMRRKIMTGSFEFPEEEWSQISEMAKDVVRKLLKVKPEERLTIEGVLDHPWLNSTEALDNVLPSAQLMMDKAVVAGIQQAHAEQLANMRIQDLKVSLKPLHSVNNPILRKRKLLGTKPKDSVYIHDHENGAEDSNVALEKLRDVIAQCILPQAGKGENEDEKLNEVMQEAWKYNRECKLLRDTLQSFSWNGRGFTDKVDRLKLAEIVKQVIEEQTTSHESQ
Description: as §1

[9] = molecular target: T3, 363 human kinases (including Aurora A/B/C) (Homo sapiens, UniProt Q9UL54); details: TAOK2/TAO1; for remaining activity at 0.1 µM: 100 nM; for remaining activity at 0.1 µM / remaining activity at 0.5 µM: read-out: % Enzyme Activity (relative to DMSO controls)
T3 sequence (Q9UL54 1-1235): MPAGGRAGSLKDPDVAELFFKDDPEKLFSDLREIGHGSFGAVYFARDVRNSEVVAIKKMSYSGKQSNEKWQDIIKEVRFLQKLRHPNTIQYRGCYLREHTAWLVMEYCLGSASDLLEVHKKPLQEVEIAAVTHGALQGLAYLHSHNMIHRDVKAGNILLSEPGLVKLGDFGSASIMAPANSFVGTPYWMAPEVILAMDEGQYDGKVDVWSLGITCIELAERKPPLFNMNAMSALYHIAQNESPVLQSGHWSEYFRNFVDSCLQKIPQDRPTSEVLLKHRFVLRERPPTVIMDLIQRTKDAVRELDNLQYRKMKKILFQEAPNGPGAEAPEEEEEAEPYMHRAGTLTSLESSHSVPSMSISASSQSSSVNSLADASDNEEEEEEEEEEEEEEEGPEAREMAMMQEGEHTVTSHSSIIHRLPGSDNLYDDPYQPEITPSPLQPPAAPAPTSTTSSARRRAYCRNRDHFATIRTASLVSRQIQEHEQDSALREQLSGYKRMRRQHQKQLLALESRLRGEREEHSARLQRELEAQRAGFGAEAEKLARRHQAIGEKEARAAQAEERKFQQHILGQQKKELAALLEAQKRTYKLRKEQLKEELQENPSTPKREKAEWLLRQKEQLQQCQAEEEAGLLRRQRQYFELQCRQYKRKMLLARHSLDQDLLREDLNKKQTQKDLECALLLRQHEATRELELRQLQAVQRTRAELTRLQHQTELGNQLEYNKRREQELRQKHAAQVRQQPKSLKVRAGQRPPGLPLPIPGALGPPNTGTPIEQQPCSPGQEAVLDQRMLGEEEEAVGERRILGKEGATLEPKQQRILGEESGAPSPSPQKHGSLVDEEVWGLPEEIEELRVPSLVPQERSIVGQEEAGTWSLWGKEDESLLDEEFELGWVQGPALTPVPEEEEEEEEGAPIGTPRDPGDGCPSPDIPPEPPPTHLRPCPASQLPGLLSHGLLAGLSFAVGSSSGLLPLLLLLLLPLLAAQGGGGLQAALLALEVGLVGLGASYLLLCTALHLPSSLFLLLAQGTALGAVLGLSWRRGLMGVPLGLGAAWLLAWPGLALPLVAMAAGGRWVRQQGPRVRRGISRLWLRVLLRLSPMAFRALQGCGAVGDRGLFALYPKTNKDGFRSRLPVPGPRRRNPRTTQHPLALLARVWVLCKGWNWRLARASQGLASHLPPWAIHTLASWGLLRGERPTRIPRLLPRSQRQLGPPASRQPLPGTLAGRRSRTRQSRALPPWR
Description: as §1

363 human kinases (including Aurora A/B/C) (Homo sapiens, UniProt O43353), sequence (O43353 whole entry): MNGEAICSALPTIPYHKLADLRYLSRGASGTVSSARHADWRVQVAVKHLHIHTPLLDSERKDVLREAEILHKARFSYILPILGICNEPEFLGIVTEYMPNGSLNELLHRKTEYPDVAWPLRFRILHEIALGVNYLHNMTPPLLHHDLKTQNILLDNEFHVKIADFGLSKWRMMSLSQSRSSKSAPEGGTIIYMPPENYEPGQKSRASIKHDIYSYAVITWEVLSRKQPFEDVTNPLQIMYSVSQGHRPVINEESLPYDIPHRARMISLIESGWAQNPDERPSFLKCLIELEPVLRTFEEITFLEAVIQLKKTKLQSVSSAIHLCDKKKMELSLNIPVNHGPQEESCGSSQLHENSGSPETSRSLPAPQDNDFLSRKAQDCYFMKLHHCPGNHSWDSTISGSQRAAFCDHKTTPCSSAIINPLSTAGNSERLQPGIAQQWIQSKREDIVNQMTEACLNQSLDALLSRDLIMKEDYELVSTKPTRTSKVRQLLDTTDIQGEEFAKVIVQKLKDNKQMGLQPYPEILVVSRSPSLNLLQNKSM
363 human kinases (including Aurora A/B/C) (Homo sapiens, UniProt Q6P2M8), sequence (Q6P2M8 whole entry): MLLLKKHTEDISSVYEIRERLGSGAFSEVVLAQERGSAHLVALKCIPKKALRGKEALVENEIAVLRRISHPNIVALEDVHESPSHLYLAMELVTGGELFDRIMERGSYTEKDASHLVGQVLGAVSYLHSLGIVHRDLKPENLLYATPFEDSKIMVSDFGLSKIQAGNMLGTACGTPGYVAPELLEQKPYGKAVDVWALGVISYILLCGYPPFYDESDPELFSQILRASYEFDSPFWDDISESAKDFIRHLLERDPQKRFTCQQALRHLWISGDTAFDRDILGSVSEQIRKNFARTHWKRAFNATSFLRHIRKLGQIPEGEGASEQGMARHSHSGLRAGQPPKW
363 human kinases (including Aurora A/B/C) (Homo sapiens, UniProt Q9UM73), sequence (Q9UM73 19-1620): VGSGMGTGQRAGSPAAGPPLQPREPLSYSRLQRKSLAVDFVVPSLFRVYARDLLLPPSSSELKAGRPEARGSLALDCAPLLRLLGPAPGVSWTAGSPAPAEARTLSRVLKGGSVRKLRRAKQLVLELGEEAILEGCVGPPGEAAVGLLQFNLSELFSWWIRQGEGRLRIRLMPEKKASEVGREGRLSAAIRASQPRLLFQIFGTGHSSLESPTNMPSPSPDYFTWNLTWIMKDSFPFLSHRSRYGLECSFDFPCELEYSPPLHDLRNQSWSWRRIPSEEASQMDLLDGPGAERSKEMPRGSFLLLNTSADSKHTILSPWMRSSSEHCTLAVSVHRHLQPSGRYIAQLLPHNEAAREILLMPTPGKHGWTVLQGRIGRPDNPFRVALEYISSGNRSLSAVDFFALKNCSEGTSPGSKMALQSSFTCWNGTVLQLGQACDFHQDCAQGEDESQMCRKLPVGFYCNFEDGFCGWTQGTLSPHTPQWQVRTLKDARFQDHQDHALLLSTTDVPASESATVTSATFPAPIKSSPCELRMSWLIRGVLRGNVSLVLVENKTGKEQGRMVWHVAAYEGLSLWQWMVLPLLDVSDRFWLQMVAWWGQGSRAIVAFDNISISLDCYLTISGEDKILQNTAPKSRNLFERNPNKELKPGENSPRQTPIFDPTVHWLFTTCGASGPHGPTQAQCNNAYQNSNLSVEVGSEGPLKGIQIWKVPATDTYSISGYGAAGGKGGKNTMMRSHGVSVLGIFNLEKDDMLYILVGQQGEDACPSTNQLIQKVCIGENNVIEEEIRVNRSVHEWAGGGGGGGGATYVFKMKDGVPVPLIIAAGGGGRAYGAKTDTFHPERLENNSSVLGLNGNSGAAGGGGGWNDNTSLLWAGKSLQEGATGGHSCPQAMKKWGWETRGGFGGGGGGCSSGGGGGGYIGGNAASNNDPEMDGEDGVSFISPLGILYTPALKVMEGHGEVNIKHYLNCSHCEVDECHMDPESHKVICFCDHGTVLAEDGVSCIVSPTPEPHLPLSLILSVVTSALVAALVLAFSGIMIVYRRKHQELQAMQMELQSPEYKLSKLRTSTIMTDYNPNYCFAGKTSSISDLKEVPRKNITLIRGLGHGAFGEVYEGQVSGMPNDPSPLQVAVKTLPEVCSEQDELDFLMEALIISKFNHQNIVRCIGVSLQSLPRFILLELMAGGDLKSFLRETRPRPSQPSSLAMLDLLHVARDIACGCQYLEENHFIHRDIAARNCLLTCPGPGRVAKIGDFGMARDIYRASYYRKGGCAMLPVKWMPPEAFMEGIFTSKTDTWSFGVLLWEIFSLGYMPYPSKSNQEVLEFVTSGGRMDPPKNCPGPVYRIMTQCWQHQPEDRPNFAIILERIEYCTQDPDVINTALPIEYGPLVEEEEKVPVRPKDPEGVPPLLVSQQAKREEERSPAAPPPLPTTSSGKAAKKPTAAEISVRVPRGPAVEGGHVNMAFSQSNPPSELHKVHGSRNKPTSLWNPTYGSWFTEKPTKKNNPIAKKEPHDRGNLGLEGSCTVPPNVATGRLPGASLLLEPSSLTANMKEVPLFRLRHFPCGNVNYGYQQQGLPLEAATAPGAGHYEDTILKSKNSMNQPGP
363 human kinases (including Aurora A/B/C) (Homo sapiens, UniProt Q9Y4K4), sequence (Q9Y4K4 whole entry): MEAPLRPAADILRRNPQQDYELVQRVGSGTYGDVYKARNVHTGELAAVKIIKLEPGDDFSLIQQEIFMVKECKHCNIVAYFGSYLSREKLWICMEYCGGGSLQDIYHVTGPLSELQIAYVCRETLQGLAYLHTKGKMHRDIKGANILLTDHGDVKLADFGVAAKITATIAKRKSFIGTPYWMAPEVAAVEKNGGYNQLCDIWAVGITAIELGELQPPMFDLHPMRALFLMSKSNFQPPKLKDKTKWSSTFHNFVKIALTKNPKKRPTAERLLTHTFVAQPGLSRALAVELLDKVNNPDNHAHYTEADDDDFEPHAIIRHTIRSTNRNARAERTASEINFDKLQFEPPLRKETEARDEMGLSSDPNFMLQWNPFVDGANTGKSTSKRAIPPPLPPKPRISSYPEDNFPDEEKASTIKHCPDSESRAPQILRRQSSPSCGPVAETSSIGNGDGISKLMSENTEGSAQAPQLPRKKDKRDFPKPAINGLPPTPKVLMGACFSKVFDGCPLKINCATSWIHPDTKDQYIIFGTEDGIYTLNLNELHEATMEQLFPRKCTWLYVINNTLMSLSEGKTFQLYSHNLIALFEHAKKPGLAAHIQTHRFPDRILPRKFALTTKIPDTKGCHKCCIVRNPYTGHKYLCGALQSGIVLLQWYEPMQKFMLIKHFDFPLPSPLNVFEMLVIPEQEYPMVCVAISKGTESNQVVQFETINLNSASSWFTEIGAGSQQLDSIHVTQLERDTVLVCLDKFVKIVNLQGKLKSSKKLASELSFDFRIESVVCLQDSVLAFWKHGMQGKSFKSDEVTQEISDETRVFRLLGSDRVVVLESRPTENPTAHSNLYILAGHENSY
363 human kinases (including Aurora A/B/C) (Homo sapiens, UniProt P16591), sequence (P16591 whole entry): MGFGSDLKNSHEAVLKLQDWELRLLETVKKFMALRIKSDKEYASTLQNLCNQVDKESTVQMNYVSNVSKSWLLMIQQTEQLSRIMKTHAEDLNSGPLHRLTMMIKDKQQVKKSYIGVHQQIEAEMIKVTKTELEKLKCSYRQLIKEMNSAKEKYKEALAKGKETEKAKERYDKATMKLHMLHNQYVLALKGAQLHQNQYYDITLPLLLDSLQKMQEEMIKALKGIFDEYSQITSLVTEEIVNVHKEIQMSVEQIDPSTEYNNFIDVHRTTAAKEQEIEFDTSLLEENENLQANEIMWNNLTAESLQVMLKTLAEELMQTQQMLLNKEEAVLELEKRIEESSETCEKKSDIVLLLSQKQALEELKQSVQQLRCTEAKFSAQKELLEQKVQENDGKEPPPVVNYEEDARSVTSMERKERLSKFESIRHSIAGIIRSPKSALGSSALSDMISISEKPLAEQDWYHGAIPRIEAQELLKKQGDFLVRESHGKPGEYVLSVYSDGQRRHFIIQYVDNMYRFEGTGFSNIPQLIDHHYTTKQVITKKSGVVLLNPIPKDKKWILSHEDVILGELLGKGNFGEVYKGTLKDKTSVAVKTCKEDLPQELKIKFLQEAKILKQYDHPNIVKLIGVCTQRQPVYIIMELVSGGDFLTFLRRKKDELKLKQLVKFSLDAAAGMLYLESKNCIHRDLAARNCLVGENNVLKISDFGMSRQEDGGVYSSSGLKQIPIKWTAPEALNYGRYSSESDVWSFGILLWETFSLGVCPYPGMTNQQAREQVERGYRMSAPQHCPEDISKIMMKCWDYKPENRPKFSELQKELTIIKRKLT

## CCn1cc(-c2ccnc3[nH]c(-c4cccc(CN(C)C)c4)cc23)c(-c2ccc(NC(=O)N(C)C)cc2)n1 [GSK1070916]
[1]
  remaining activity at 0.1 µM: 99.4%
[2]
  remaining activity at 0.1 µM: 98.4%
[3]
  remaining activity at 0.1 µM: 96.5%
[4]
  remaining activity at 0.1 µM: 95.5%
[5]
  remaining activity at 0.1 µM: 84.3%
[6]
  remaining activity at 0.1 µM: 116%
[7]
  remaining activity at 0.1 µM: 84%
[8]
  remaining activity at 0.1 µM: 99.4%
[9]
  remaining activity at 0.1 µM: 92.6%

## O=C(c1cccc(Cl)c1F)N1CCN(Cc2cccc(Nc3nccs3)n2)CC1 [MK-8745]
[1]; 500 nM
  % Enzyme Activity (relative to DMSO controls): 98.69%
  remaining activity at 0.5 µM: 100%
[2]; 500 nM
  % Enzyme Activity (relative to DMSO controls): 78.97%
  remaining activity at 0.5 µM: 81%
[3]; 500 nM
  % Enzyme Activity (relative to DMSO controls): 82.62%
  remaining activity at 0.5 µM: 83.7%
[4]; 500 nM
  % Enzyme Activity (relative to DMSO controls): 96.39%
  remaining activity at 0.5 µM: 98.9%
[5]; 500 nM
  % Enzyme Activity (relative to DMSO controls): 79.25%
  remaining activity at 0.5 µM: 79.4%
[6]; 500 nM
  % Enzyme Activity (relative to DMSO controls): 82.53%
  remaining activity at 0.5 µM: 89.3%
[7]; 500 nM
  % Enzyme Activity (relative to DMSO controls): 93.71%
  remaining activity at 0.5 µM: 94%
[8]; 500 nM
  % Enzyme Activity (relative to DMSO controls): 102.03%
  remaining activity at 0.5 µM: 103%
[9]; 500 nM
  % Enzyme Activity (relative to DMSO controls): 97.14%
  remaining activity at 0.5 µM: 97.6%

## O=C(O)[C@]1(Cc2cccc(Nc3nccs3)n2)CC[C@@H](Oc2cccc(Cl)c2F)CC1 [MK-5108]
[1]
  remaining activity at 0.1 µM: 89.2%
[1]; 500 nM
  remaining activity at 0.5 µM: 102%
[2]
  remaining activity at 0.1 µM: 67%
[2]; 500 nM
  remaining activity at 0.5 µM: 30.9%
[3]
  remaining activity at 0.1 µM: 87%
[3]; 500 nM
  remaining activity at 0.5 µM: 49.8%
[4]
  remaining activity at 0.1 µM: 100%
[4]; 500 nM
  remaining activity at 0.5 µM: 96.4%
[5]
  remaining activity at 0.1 µM: 47.6%
[5]; 500 nM
  remaining activity at 0.5 µM: 25.6%
[6]
  remaining activity at 0.1 µM: 89.1%
[6]; 500 nM
  remaining activity at 0.5 µM: 60%
[7]
  remaining activity at 0.1 µM: 96.2%
[7]; 500 nM
  remaining activity at 0.5 µM: 92.4%
[8]
  remaining activity at 0.1 µM: 101%
[8]; 500 nM
  remaining activity at 0.5 µM: 101%
[9]
  remaining activity at 0.1 µM: 97.5%
[9]; 500 nM
  remaining activity at 0.5 µM: 78.1%

Source: article PMC4685510, “A Cell Biologist’s Field Guide to Aurora Kinase Inhibitors” (Frontiers in Oncology, 2015)
